Source: US20230148251A1, “COMPOUND NUTRIENT CAPABLE OF REPAIRING DAMAGED INTESTINES OF PIGELETS AND METHOD OF USING THE SAME” (Sichuan Agricultural University, priority 2021, published 2023)

What was measured:
[1] = tested on: low-birth-weight suckling piglets; test: Arginine supplementation: growth performance of low-birth-weight suckling piglets; format: in vivo; settings: 0.04% arginine in feed vs without
Excerpt: Three-day-old suckling piglets with low birth weight were used as experimental animals. They were randomly divided into two treatments, fed with 0.04% and without arginine feed. Each treatment had 8 replicates, and each replicate had 1 piglet. The test period was 21 days to investigate the growth performance of piglets.

[2] = tested on: low-birth-weight suckling piglets; test: Arginine supplementation: serum antioxidant enzyme activity and MDA content; format: in vivo; settings: 0.04% arginine in feed vs without
Excerpt: Three-day-old suckling piglets with low birth weight were used as experimental animals. They were randomly divided into two treatments, fed with 0.04% and without arginine feed. Each treatment had 8 replicates, and each replicate had 1 piglet. The test period was 21 days. After the test, the piglet serum was collected to investigate the antioxidant capacity of the piglet serum.

N=C(N)NCCC[C@H](N)C(=O)O [Arginine Group, arginine]
significantly improve: daily gain of weak piglets (in words) [1] | feed intake of weak piglets (in words) [1] | antioxidant capacity of weak piglets (in words) [2]
